# Measured values taken from patent publication US20040115331A1, “Ximenynic acid compositions, methods for their production and uses thereof” (priority 2002, published 2004).
# Tested on: enteroendocrine L-cells
# Assay: Secretion of satiety inducing peptides (CCK-8, GLP-1) by enteroendocrine L-cells, radio immuno assay
# Type: cell-based
# Settings: L-cells incubated 2 h at 37° C in KRB buffer; compared with equal amounts of palmitic acid
# Protocol: To estimate the effects of ximenynic acid on satiety we measure the excretion of satiety inducing peptides (CCK-8 and GLP-1 L) by enteroendocrine L-cells. Two days prior to experiment 1*10^6 are cultured in 12-well culture plates. On the day of the experiment supernatants are replaced by Krebs-Ringer bicarbonate (KRB) buffer containing either control or test substances. Prior to the addition the solutions are adjusted to pH 7.2. Cells are incubated for 2 h at 37° C. Following incubation, supernatants are collected and measured by radio immuno assay for the amount of CCK-8 or GLP-1 which has been secreted.
smiles,measurement,value
"CCCCCC/C=C/C#CCCCCCCCC(=O)O [ximenynic acid, octadeca-trans-11-en-9-ynoic acid]",release of CCK-8,significantly greater release
same,release of GLP-1,significantly greater release
